What was measured:
[1] = system: quorum sensing signaling (Las system), QSC102 lacZ; assay: Two-strain (PAO1 / QSC102) screening assay for quorum sensing inhibiting compounds; format: cell-based, Pseudomonas aeruginosa; conditions: PAO1 + QSC102 on LB agar with X-gal, visual
Protocol: In this example, the screening assay used two strains of P. aeruginosa: a wild type P. aeruginosa (PAO1) and QSC102, from Example 1 (see FIG. 8). This assay will detect inhibition of all aspects of quorum sensing signaling, e.g., signal generation and signal reception.
(§1) Microtiter plates are prepared by adding 200 μL Luria Broth (“LB”) agar, containing 0.008% 5-bromo-4-chloro-3-indolyl-β-D-galactose (X-gal) to each well. Overnight cultures of PAO1 and QSC102 are subcultured in LB to a starting absorbance at 600 nm (“A600”) of 0.05 and grown at 37° C to an A600 of 1.0. PAO1 is diluted 2.5×10^5-fold in LB and 5 μL of this is applied to the surface of the LB agar in each well. Plates are then dried in a laminar flow hood for 60 minutes. A tenfold dilution of QSC102 in LB is used to inoculate each well using a replicator. Plates are then sealed and incubated at 37° C for 40 hours. Growth and color development are evaluated visually and the data is recorded with a camera.
(§2) The test compound was present in a microtiter well and overlaid with LB agar and 5-bromo-4-chloro-3-indolyl-β-D-galactose (X-gal). Both strains were spotted on the agar in each well. […] Inhibition of signaling was evaluated qualitatively by the absence or weakening of the blue color development.

[2] = system: P. aeruginosa PAO1 and QSC102; assay: Bacterial growth in the PAO1 / QSC102 screening assay; format: cell-based, Pseudomonas aeruginosa; conditions: in the presence of test compound
Protocol: as §1, §2

RhlI = biological target: T1, RhlI (Pseudomonas aeruginosa, UniProt P54291); conditions: substrate of RhlI; cited from earlier work
T1 construct: host or cells: LasI minus strain of P. aeruginosa (as described for the cited study, Parsek et al. 1999)
T1 sequence (P54291 whole entry): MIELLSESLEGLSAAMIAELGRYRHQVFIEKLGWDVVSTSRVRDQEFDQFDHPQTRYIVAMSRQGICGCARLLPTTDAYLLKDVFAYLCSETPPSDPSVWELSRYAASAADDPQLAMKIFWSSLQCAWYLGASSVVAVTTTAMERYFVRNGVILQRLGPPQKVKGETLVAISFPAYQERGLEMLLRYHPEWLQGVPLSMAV

Compound | Concentration required to suppress color development completely [1] [mM] | Inhibition of signaling (blue color development) [1] | Bacterial growth [2] | Km (RhlI) [µM] | vmax compared to C4-ACP (RhlI)
CC(=O)C1CCOC1=O (stereo not drawn) [acetyl-butyrolactone] | ~20 | showed an inhibitory effect | not inhibited | – | –
CCCC(=O)SCCNC(=O)CCNC(=O)[C@H](O)C(C)(C)COP(=O)(O)OP(=O)(O)OC[C@H]1O[C@@H](n2cnc3c(N)ncnc32)[C@H](O)[C@@H]1OP(=O)(O)O [butanoyl-CoA] | – | – | – | 230 | one order of magnitude slower
O=C1CCCO1 [butyrolactone] | ~20 | showed an inhibitory effect | not inhibited | – | –
butanoyl-acyl carrier protein [C4-ACP] | – | – | – | 6 | –

Source: patent US6855513B1 (priority 1999, dated 2005)
